This is an account of results in ChEMBL document CHEMBL1146678, “Inhibitors of multidrug resistance (MDR) have affinity for MDR substrates” (Bioorg Med Chem Lett, 2004).

Calls of active or inactive are those of the source. No cut-off for these calls is given here. Numbered stars: 1 amine (or outer) side, 2 acyl side, 3 side chain; on linkers, the order of the positions; unused ones are H or OH. Bridge positions count the residues as written; N and C are the ends. Square brackets hold non-standard residues; d marks the D form. Peptide text beside a SMILES is read from it. I, II: the chains in the order shown. Actinocin(9to1) = Cc1c2oc3c(C)ccc(C(=O)[*:1])c3nc-2c(C(=O)[*:2])c(N)c1=O; NMeV = CN[C@H](C(=O)O)C(C)C; Sar = CNCC(=O)O

Assay [1] in a line: Fold reduction in minimum inhibitory concentration of antibiotic in presence of Reserpine. In kind it is functional.
Assay [2] in a line: Fold reduction in minimum inhibitory concentration of antibiotic in presence of GG918. It counts as functional.
The test system of the next assay is Lycopus europaeus. Nature of the assay: Inhibitory activity against Lycopus europeus; no inhibitory activity. It counts as functional, organism-based.
Assay [3] in a line: Inhibitory concentration in presence of MDR inhibitor XR-9576. It counts as functional.
Assay [4] can be described thus: Dose modifying factor expressed as the ratio of IC50 for the chemotherapy drug to IC50 for drug + GG918; Range = 1.0-23. It counts as functional.
A short description of assay [5]: Relative resistance is the ratio of IC50 values of drug with JTV-519 to that without the reversing agent. In kind it is functional.
The subject of assay [6] is NCI-H69. Nature of the assay: Approximate percentage for level of inhibition of cell growth in presence and absence of inhibitor (Value of drug + Verapamil / Value of drug). In kind it is functional.
For assay [7], the system named is NCI-H69. Nature of the assay: Approximate percentage for level of inhibition of cell growth in presence and absence of inhibitor (Value of drug + alpha Tochoferol / Value of drug). It counts as functional.
Assay [8] deals with A549. Kind of assay: Synergism with indomethacin in A549 cells. In kind it is functional.
The test system of assay [9] is A549. Kind of assay: Synergism with sulindac in A549 cells. In kind it is functional.
Assay [10] concerns NCI-H69. Kind of assay: Approximate percentage for level of inhibition of cell growth in presence and absence of inhibitor (Value of drug + Clofazimine / Value of drug). In kind it is functional.
In assay [11] the test system is NCI-H69. Kind of assay: Approximate percentage for level of inhibition of cell growth in presence and absence of inhibitor (Value of drug + B669 / Value of drug). In kind it is functional.
The nature of assay [12]: Relative inhibition (IC50) in presence and absence of reserpine. In kind it is functional.
The test system of assay [13] is NCI-H69. Kind of assay: Approximate percentage for level of inhibition of cell growth in presence and absence of inhibitor (Value of drug + GG918 / Value of drug). It counts as functional.
Assay [14] concerns A549. Nature of the assay: Synergism with tolmetin in A549 cells. It counts as functional.
Assay [15] has as its system DLKP cell line. Kind of assay: Synergism with tolmedin in DLKP cells. In kind it is functional.
Assay [16] has as its system DLKP cell line. Nature of the assay: Synergism with sulindac in DLKP cells. In kind it is functional.
Assay [17] relates to DLKP cell line. Kind of assay: Synergism with indomethacin in DLKP cells. It counts as functional.
A short description of assay [18]: Fold reduction in fluorescence in presence and absence of MC-002595 at 128 mg/mL. In kind it is functional.
Assay [19] can be described thus: Dose modifying factor expressed as the ratio of IC50 for the chemotherapy drug to IC50 for drug + GG918; Range = 1.2-1850. It counts as functional.
Assay [20] relates to NCI-H69. Kind of assay: Percentage inhibition of cell growth in the presence of compound in H69/LX4 cells with Clofazemine as inhibitor; reversal of inhibition. In kind it is functional, cell-based.
Assay [21] relates to NCI-H69. Kind of assay: Percentage inhibition of cell growth in the presence of compound in H69/LX4 cells with verapamil as inhibitor; reversal of inhibition. In kind it is functional, cell-based.
Assay [22] relates to NCI-H69. Kind of assay: Percentage inhibition of cell growth in the presence of compound in H69/LX4 cells with B669 as inhibitor; reversal of inhibition. In kind it is functional, cell-based.
Assay [23] relates to NCI-H69. Kind of assay: Percentage inhibition of cell growth in the presence of compound in H69/LX4 cells with as GG918 inhibitor; reversal of inhibition. It counts as functional, cell-based.
The test system of assay [24] is NCI-H69. Nature of the assay: Percentage inhibition of cell growth in the presence of compound and in the absence of […] in H69/LX4 cells with clofazimine MDR inhibitor. In kind it is functional.
Assay [25] concerns DLKP cell line. Nature of the assay: Antagonism of indomethacin in DLKP cells. It counts as functional.
The nature of assay [26]: Inhibitory activity in presence of VX-710 inhibitor; successful in clinical trials. It counts as functional.
Assay [27] relates to A549. Nature of the assay: Antagonism of indomethacin in A549 cells. In kind it is functional.
Assay [28] has as its system DLKP cell line. Nature of the assay: Antagonism of sulindac in DLKP cells. In kind it is functional.
In assay [29] the test system is A549. Nature of the assay: Antagonism of sulindac in A549 cells. It counts as functional.
Assay [30] relates to A549. Nature of the assay: Antagonism of tolmetin in A549 cells. It counts as functional.

As to `CCn1cc(C(=O)O)c(=O)c2cc(F)c(N3CCNCC3)cc21`, the figures for the Fold reduction in [1] and in assay [2] were 4 and 8, respectively. Moreover, the inhibition result in the assay with Lycopus europaeus is “inactive”.
In the case of `COc1cccc2c1C(=O)c1c(O)c3c(c(O)c1C2=O)C[C@@](O)(C(C)=O)C[C@@H]3O[C@H]1C[C@H](N)[C@H](O)[C@H](C)O1` [DAUNORUBICIN], in [3], the IC50 (usually the point on the concentration scale where inhibition reaches its midpoint) worked out at 38.2 nM.
With `CC[C@@]1(O)C(=O)OCc2c1cc1n(c2=O)Cc2cc3c(CN(C)C)c(O)ccc3nc2-1`, in [4], the Ratio stood at 1.
In the case of `Cc1ccc(NC(=O)c2ccc(CN3CCN(C)CC3)cc2)cc1Nc1nccc(-c2cccnc2)n1`, the Ratio in [5] turned out to be 3.1.
Consider `COc1c(N2C[C@@H]3CCCN[C@@H]3C2)c(F)cc2c(=O)c(C(=O)O)cn(C3CC3)c12`, for which the Fold reduction in assay [1] came out at 2; in [2] it was 0.
Consider `COc1cccc2c1C(=O)c1c(O)c3c(c(O)c1C2=O)C[C@@](O)(C(=O)CO)C[C@@H]3O[C@H]1C[C@H](N)[C@H](O)[C@H](C)O1` [DOXORUBICIN], for which the Reduction with NCI-H69 [6] is about 33%; in the assay on NCI-H69 [7], 0%; with NCI-H69 [10], about 40%; in the assay on NCI-H69 [11], about 31%; with NCI-H69 [13], about 58%. Further, the Combination_index in the assay on A549 [8] amounted to 0.251; in the assay on A549 [9] it was 0.368; in the assay with A549 [14] it was 0.357; in the assay with DLKP cell line [15], 0.467; in the assay on DLKP cell line [16] it was 0.449. The same compound showed a Fold increase in assay [12] of 2.9.
`O=C(O)c1cn(C2CC2)c2cc(N3CCNCC3)c(F)cc2c1=O`: the Fold reduction in assay [1] and in [2] was 8 each time.
Turning to `COc1cc([C@@H]2c3cc4c(cc3[C@@H](O[C@@H]3O[C@@H]5CO[C@@H](C)O[C@H]5[C@H](O)[C@H]3O)[C@H]3COC(=O)[C@H]23)OCO4)cc(OC)c1O` [ETOPOSIDE], the Combination_index was determined as 0.916 with A549 [8]; 0.681 in the assay on A549 [9]; 0.534 in the assay with DLKP cell line [17]; 0.745 in the assay on DLKP cell line [15]; 0.463 in the assay with DLKP cell line [16]. The Ratio in assay [5] was determined as 2.6.
With `Cc1c2oc3c(C)ccc(C(=O)N[C@@H]4C(=O)N[C@H](C(C)C)C(=O)N5CCC[C@H]5C(=O)N(C)CC(=O)N(C)[C@@H](C(C)C)C(=O)O[C@@H]4C)c3nc-2c(C(=O)N[C@@H]2C(=O)N[C@H](C(C)C)C(=O)N3CCC[C@H]3C(=O)N(C)CC(=O)N(C)[C@@H](C(C)C)C(=O)O[C@@H]2C)c(N)c1=O` (I: T[dV]P[Sar][NMeV] / II: T[dV]P[Sar][NMeV]; ester I:1-I:C, II:1-II:C; linker I:N-II:N via Actinocin(9to1)), in [5], the Ratio was 3.
Take `c1ccc(Nc2cccc3ccccc23)cc1`: the Fold reduction in [18] stood at 2.3.
With `O=C1c2c(O)ccc(O)c2C(=O)c2c(NCCNCCO)ccc(NCCNCCO)c21`, in assay [19], the Ratio amounted to 1.2.
As to `Cc1c(C)c2c(c(C)c1O)CC[C@@](C)(CCC[C@H](C)CCC[C@H](C)CCCC(C)C)O2`, the inhibition result in the assay with NCI-H69 [20], in the assay with NCI-H69 [21], with NCI-H69 [22] and in the assay on NCI-H69 [23] was “reversal of inhibition” in each case.
Turning to `CC[C@]1(O)C[C@@H]2CN(CCc3c([nH]c4ccccc34)[C@@](C(=O)OC)(c3cc4c(cc3OC)N(C)[C@H]3[C@@](O)(C(=O)OC)[C@H](OC(C)=O)[C@]5(CC)C=CCN6CC[C@]43[C@@H]65)C2)C1` [VINBLASTINE], the Reduction in the assay with NCI-H69 [6] was about 88%; with NCI-H69 [7] it was about 95%; with NCI-H69 [24], about 94%. Besides, in assay [12], the Fold increase came to 8.
Consider `CC(=O)O[C@H]1C(=O)[C@@]2(C)[C@H]([C@H](OC(=O)c3ccccc3)[C@]3(O)C[C@H](OC(=O)[C@H](O)[C@@H](NC(=O)c4ccccc4)c4ccccc4)C(C)=C1C3(C)C)[C@]1(OC(C)=O)CO[C@@H]1C[C@@H]2O` [PACLITAXEL], for which the Combination_index with DLKP cell line [25] is listed as 1.227; in the assay on A549 [27], 2.234; in the assay on DLKP cell line [28], 1.233; with A549 [29], 1.539; in the assay with A549 [30], 1.349. The inhibition entry in assay [26] is “Active”.
With `CC[C@]1(O)C[C@H]2CN(CCc3c([nH]c4ccccc34)[C@@](C(=O)OC)(c3cc4c(cc3OC)N(C=O)[C@H]3[C@@](O)(C(=O)OC)[C@H](OC(C)=O)[C@]5(CC)C=CCN6CC[C@]43[C@@H]65)C2)C1` [VINCRISTINE], the Combination_index was 0.301 in the assay on A549 [8], 0.462 in the assay on A549 [9], 0.593 in the assay on DLKP cell line [15] and 0.241 in the assay with DLKP cell line [16]. For the same compound, the Ratio in assay [5] stood at 3.7.
